Values of other authors, collected in PMC12238723, “Phase I Clinical Trial of CVL218, a Novel PARP1/2 Inhibitor, in Patients with Advanced Solid Tumors” (MedComm, 2025).

Key:
[1] = set-up: method as in PMID 37806255; settings: recommended dose of 300 mg BID; cited from earlier work
[2] = system: patients; settings: cited from earlier work

Row | SMILES | median Tmax [1] [h] | incidence of MDS/AML [2] | incidence of anemia [2] [%] | increased risk of MDS/AML compared with placebo [2] [%] | occurrence of grade ≥3 anemia [2] | overall incidence of grade ≥3 AEs [2] | rate of dose reduction due to AEs [2] | treatment discontinuation rates [2] | grade ≥3 gastrointestinal AEs ([2]; comparison value, no reference given) [%] | grade ≥3 anemia incidence [2]
1 | O=C(c1cc(Cc2n[nH]c(=O)c3ccccc23)ccc1F)N1CCN(C(=O)C2CC2)CC1 [olaparib, Olaparib] | 1.5 | approximately 1% | 21 to 46 | 158 | 5.1–22% | 36–40% | 25–29% | 6–17% | 4.3 | 
2 | NC(=O)c1cccc2cn(-c3ccc([C@@H]4CCCNC4)cc3)nc12 [niraparib] |  |  |  | 48 |  |  |  |  |  | 14.7–22.5%
